Read-outs that look alike come from different tables or passages of the source.
Tests used:
Assay type in all cases: in vivo
[1] = test system: Pseudaletia separate Walker; test: Insecticidal activities to armyworm, leaf dipping and feeding
Summary of the method: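 Armyworms (10 per tumbler, 3 replicates) ate fresh maize leaves that had been immersed for 3 seconds in compound solutions of 1.57-500 ppm in acetone, or in aqueous acetone for controls. Kills were scored at 24 h, and mortality was calculated relative to survivors in the control group.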

Plutella xylostella = test: Insecticidal activities to diamondback moth, feeding dipped leaves; conditions: for mortality at 500 ppm: Plutella xylostella, read-out: Plutella xylostella Mortality (%) 500 ppm
Summary of the method: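 Mortality was scored 24 h after larvae of Plutella xylostella (10 per treatment, 3 repeats) fed on cabbage leaves immersed 3 s in test solution and dried at room temperature. It was computed relative to survivors in a water-treated control.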

Aphis craccivoral = test: Insecticidal activities to aphids, immersion method; conditions: for mortality at 500 ppm: Aphis, read-out: Aphis craccivoral Mortality (%) 500 ppm
Summary of the method: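 Immersion assay: compound diluted from 10 g/L DMF stock to 500 ppm in 0.2 mL/L Triton X-100, sprout-feeding wingless adults dipped 5 s. Kept at 23° C, three repeats; 24 h mortality calculated relative to surviving Triton-treated controls.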

Nilaparvata lugens = test: Insecticidal activities to plant hopper, spraying method; conditions: for mortality at 500 ppm: Nilaparvata lugens, read-out: Nilaparvata lugens Mortality (%) 500 ppm
Summary of the method: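 Spray test: acetone solutions of 500 down to 0.79 ppm, 2 ml per tumbler holding 10 planthoppers introduced 6 h earlier, triplicate, aqueous acetone as control. Mortality at 24 h calculated from survivors relative to control.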

[2] = 500 ppm, leaf dipping and feeding, counted after 24 hours
[3] = 500 ppm, feeding dipped leaves, counted after 24 hours
[4] = 500 ppm, spraying method, counted after 24 hours

Row | SMILES | Pseudaletia separate Walker Mortality (%) 500 ppm ([1]; in vivo) [%] | Plutella xylostella Mortality (%) 500 ppm (Plutella xylostella; in vivo) [%] | Aphis craccivoral Mortality (%) 500 ppm (Aphis craccivoral; in vivo) [%] | Nilaparvata lugens Mortality (%) 500 ppm (Nilaparvata lugens; in vivo) [%] | other results
1 | N#CC(=Cc1cccs1)C1=NCCN1Cc1ccc(Cl)nc1 [Compound 146] | 100 | 100 | 100 | 100 | –
2 | CC(c1ccc(Cl)nc1)N1CCN=C1C(=Cc1ccsc1)[N+](=O)[O-] (racemic) [Compound 128] | 100 | 100 | 100 | 100 | –
3 | O=[N+]([O-])C(=Cc1ccc(Br)o1)C1=NCCN1CC1CCOC1 (centres unmarked) [Compound 95] | 87 | 92 | 65 | 61 | –
4 | Cc1csc(C=C(C2=NCCN2Cc2ccc(Cl)nc2)[N+](=O)[O-])c1 [Compound 28] | 100 | 100 | 100 | 100 | –
5 | O=[N+]([O-])C(=Cc1cc(Cl)cs1)C1=NCCCN1Cc1ccc(Cl)nc1 [Compound 66] | 87 | 100 | 56 | 87 | –
6 | CCc1ccc(C=C(C2=NCCN2Cc2ccc(Cl)nc2)[N+](=O)[O-])o1 [Compound 14] | 100 | 100 | 100 | 100 | –
7 | C[N+]1=C(C(=Cc2ccc(Br)o2)[N+](=O)[O-])N(Cc2cnc(Cl)s2)CC1.[Cl-] [Compound 279] | 100 | 100 | 100 | 100 | –
8 | O=[N+]([O-])C(=Cc1sc(Br)cc1Br)C1=NCCN1Cc1ccc(Cl)nc1 [Compound 26] | 100 | 100 | 100 | 100 | –
9 | CC[N+]1=C(C(=Cc2ccc([N+](=O)[O-])s2)[N+](=O)[O-])N(Cc2ccc(Cl)nc2)CC1.[Cl-] [Compound 293] | 100 | 100 | 100 | 100 | –
10 | O=[N+]([O-])C(=Cc1cc(Br)co1)C1=NCCN1CC1CCOC1 (centres unmarked) [Compound 97] | 90 | 86 | 76 | 88 | –
11 | Cc1coc(C=C(C2=NCCN2Cc2ccc(Cl)nc2)[N+](=O)[O-])c1 [Compound 13] | 100 | 100 | 100 | 100 | –
12 | O=[N+]([O-])C(=Cc1cc(Br)cs1)C1=NCCN1Cc1cnc(Cl)s1 [Compound 89] | 97 | 100 | 100 | 100 | –
13 | O=[N+]([O-])C(=Cc1cc(Br)co1)C1=NCCN1Cc1cnc(Cl)s1 [Compound 74] | 100 | 100 | 100 | 100 | –
14 | O=[N+]([O-])C(=Cc1ccsc1)C1=NCCCN1Cc1ccc(Cl)nc1 [Compound 62] | 100 | 100 | 90 | 100 | –
15 | O=[N+]([O-])C(=Cc1cc(Cl)cs1)C1=NCCN1Cc1cnc(Cl)s1 [Compound 88] | 100 | 100 | 100 | 100 | –
16 | O=[N+]([O-])C(=Cc1cc(Cl)c(Cl)s1)C1=NCCN1Cc1ccc(Cl)nc1 [Compound 23] | 100 | 100 | 100 | 100 | –

Row | SMILES | Pseudaletia separate Walker Mortality (%) 500 ppm ([1]; in vivo) [%] | Plutella xylostella Mortality (%) 500 ppm (Plutella xylostella; in vivo) [%] | Aphis craccivoral Mortality (%) 500 ppm (Aphis craccivoral; in vivo) [%] | Nilaparvata lugens Mortality (%) 500 ppm (Nilaparvata lugens; in vivo) [%] | other results
17 | O=[N+]([O-])C(=Cc1cc(Br)co1)C1=NCCN1Cc1ccc(Cl)nc1 [Compound 7] | – | – | – | – | Pseudaletia separate Walker Mortality (%) 500 ppm [1, 2]: 100%; Plutella xylostella Mortality (%) 500 ppm (Plutella xylostella; [3]): 100%; Aphis craccivoral Mortality (%) 500 ppm (Aphis craccivoral; 500 ppm, immersion method): 100%; Nilaparvata lugens Mortality (%) 500 ppm (Nilaparvata lugens; [4]): 100%
18 | O=[N+]([O-])C(=Cc1ccoc1)C1=NCCN1CC1CCOC1 (centres unmarked) [Compound 92] | 100 | 100 | 80 | 100 | –
19 | CC[N+]1=C(C(=Cc2ccc(Cl)o2)[N+](=O)[O-])N(Cc2ccc(Cl)nc2)CC1.[Cl-] [Compound 288] | 100 | 100 | 100 | 100 | –
20 | N#CC(=Cc1cc(Br)cs1)C1=NCCN1Cc1ccc(Cl)nc1 [Compound 148] | 100 | 100 | 97 | 100 | –
21 | CCC(c1ccc(Cl)nc1)N1CCN=C1C(=Cc1ccc[nH]1)[N+](=O)[O-] (racemic) [Compound 132] | 89 | 99 | 73 | 84 | –
22 | Cc1coc(C=C(C2=[N+](C)CCN2Cc2ccc(Cl)nc2)[N+](=O)[O-])c1.[Cl-] [Compound 256] | 100 | 100 | 100 | 100 | –
23 | O=[N+]([O-])C(=Cc1ccc(CO)o1)C1=NCCCN1Cc1ccc(Cl)nc1 [Compound 60] | 84 | 100 | 47 | 56 | –
24 | O=[N+]([O-])C(=Cc1cc2ccccc2[nH]1)C1=NCCN1Cc1ccc(Cl)nc1 [Compound 43] | 95 | 100 | 76 | 90 | –
25 | O=[N+]([O-])C(=Cc1ccsc1)C1=NCCN1Cc1ccc(Cl)nc1 [Compound 17] | 100 | 100 | 100 | 100 | –
26 | O=[N+]([O-])C(=Cc1ccc(F)nc1)C1=NCCN1Cc1ccc(Cl)nc1 [Compound 41] | 100 | 100 | 89 | 87 | –
27 | C[N+]1=C(C(=Cc2cc(Br)c(Br)s2)[N+](=O)[O-])N(Cc2ccc(Cl)nc2)CC1.[Cl-] [Compound 268] | 100 | 100 | 100 | 100 | –
28 | O=[N+]([O-])C(=Cc1cc(Br)cs1)C1=NCCN1Cc1ccc(Cl)nc1 [Compound 22] | 100 | 100 | 100 | 100 | –
29 | O=[N+]([O-])/C(=C/c1ccco1)C1=NCCN1CC1CCOC1 (centres unmarked) [Compound 91, 2-(2-(furan-2-yl)-1-nitrovinyl)-1-((tetrahydrofuran-3-yl)methyl)-4,5-dihydro-1H-imidazole] | – | – | – | – | Pseudaletia separate Walker Mortality (%) 500 ppm [1, 2]: 98%; mortality at 500 ppm (Plutella xylostella; 24 h): 100%; mortality at 500 ppm (Aphis craccivoral): 87%; mortality at 500 ppm (Nilaparvata lugens; 24 h): 100%
30 | O=[N+]([O-])C(=Cc1oc(Br)cc1Br)C1=NCCN1Cc1cnc(Cl)s1 [Compound 78] | 100 | 100 | 100 | 100 | –
31 | Cc1ccc(C=C(C2=[N+](C)CCN2Cc2ccc(Cl)nc2)[N+](=O)[O-])s1.[Cl-] [Compound 270] | 100 | 100 | 100 | 100 | –
32 | O=[N+]([O-])/C(=C/c1ccco1)C1=NCCN1Cc1cnc(Cl)s1 [Compound 68, 1-((2-chlorothiozol-5-yl)methyl)-2-(2-(furan-2-yl)-1-nitrovinyl)-4,5-dihydro-1H-imidazole] | – | – | – | – | Pseudaletia separate Walker Mortality (%) 500 ppm [1, 2]: 100%; mortality at 500 ppm (Plutella xylostella; [3]): 100%; mortality at 500 ppm (Aphis craccivoral; 500 ppm, immersion method): 100%; mortality at 500 ppm (Nilaparvata lugens; [4]): 100%

Source: patent publication US8232407B2, “Nitrogenous heterocyclic compounds with insecticidal activity, and the preparation and use thereof” (East China University of Science and Technology, priority 2008, dated 2012)
